What all share (format): functional
One experiment has as its system A2780. The experiment is described as follows: Antiproliferative activity against human A2780 cells after 48 hrs by SRB assay. As to conditions: A2780, 48 h. Background: The SRB assay estimates cell density from bound dye.
A further experiment deals with WiDr. The experiment is described as follows: Antiproliferative activity against human WiDr cells after 48 hrs by SRB assay.
The next experiment deals with SW1573. Put plainly: Antiproliferative activity against human SW1573 cells after 48 hrs by SRB assay. As to conditions: SW1573, 48 h.

Some results are limits rather than exact numbers.

The GI50 is the concentration giving 50% growth inhibition. Low readings indicate more potent growth inhibition, high ones less potent growth inhibition. In the case of `CC(C)(C)[Si](C)(C)O[C@@H]1CCCO[C@@H]1CO`, the GI50 in the experiment on A2780, with WiDr and in the experiment on SW1573 was greater than 100 µM in each case.

A word on the TGI: it is the concentration at which net growth stops. Read a high TGI as less potent growth arrest. Consider `O=C1C=C[C@H]2OCCC[C@H]2O1`, for which the values for the GI50 with A2780, in the experiment on WiDr and in the experiment on SW1573 were 8.3 µM, 39 µM and 5.7 µM, respectively. Besides, total growth inhibition in the experiment on A2780 (TGI) required 35 µM.

On to `C=C[C@H]1OCCC[C@H]1O[Si](C)(C)C(C)(C)C`, for which the GI50 in the experiment on A2780 is 86 µM; in the experiment on WiDr it was greater than 100 µM; in the experiment with SW1573 it was greater than 100 µM.

Consider `O=C(C[C@H]1OCCC[C@H]1O)OCc1ccccc1`, for which the GI50 in the experiment with A2780, with WiDr and in the experiment on SW1573 was greater than 100 µM in each case.

In the case of `O=C(/C=C/[C@H]1OCCC[C@H]1O)OCc1ccccc1`, the GI50 with A2780, in the experiment with WiDr and in the experiment with SW1573 was greater than 100 µM throughout.

As to `COC(=O)/C=C/[C@H]1OCCC[C@H]1O`, the GI50 with A2780, with WiDr and in the experiment on SW1573 was greater than 100 µM each time.

On to `CC(C)(C)[Si](C)(C)O[C@@H]1CCCO[C@@H]1/C=C\CO`, for which the GI50 with A2780, in the experiment on WiDr and with SW1573 was greater than 100 µM in each case.

A word on the LC50: it is the concentration lethal to half of the exposed cells or organisms. A lower LC50 goes with a more lethal substance. `COC(=O)/C=C\[C@H]1OCCC[C@H]1O[Si](C)(C)C(C)(C)C`: in the experiment on A2780, it took 7.3 µM to inhibit growth by half (GI50), the LC50 came out at 86 µM and the total growth inhibition concentration (TGI) amounted to 39 µM. Besides, in the experiment with WiDr, growth was halved (GI50) at 38 µM. Besides, in the experiment on SW1573, the GI50 amounted to 6.3 µM and the TGI is 68 µM.

With `COC(=O)/C=C/[C@H]1OCCC[C@@H]1O[Si](C)(C)C(C)(C)C`, the results for the GI50 in the experiment with A2780, in the experiment with WiDr and in the experiment with SW1573 were 28 µM, 84 µM and 47 µM, respectively.

With `CC(C)(C)[Si](C)(C)O[C@@H]1CCCO[C@@H]1/C=C/C(=O)OCc1ccccc1`, the GI50 in the experiment on A2780 was found to be 32 µM; in the experiment with WiDr, 90 µM; in the experiment with SW1573, 37 µM.

With `CC(C)(C)[Si](C)(C)O[C@@H]1CCCO[C@@H]1CC(=O)OCc1ccccc1`, the values for the GI50 with A2780, in the experiment with WiDr and in the experiment with SW1573 were 23 µM, 19 µM and 30 µM, respectively.

As for `COC(=O)/C=C/[C@H]1OCCC[C@H]1O[Si](C)(C)C(C)(C)C`, the GI50 in the experiment on A2780 is 98 µM; in the experiment on WiDr, greater than 100 µM; in the experiment with SW1573 it was greater than 100 µM.

On to `CC(C)(C)[Si](C)(C)O[C@@H]1CCCO[C@@H]1/C=C/C(=O)O`, for which the GI50 in the experiment on A2780, in the experiment on WiDr and in the experiment on SW1573 was greater than 100 µM each time.

Regarding `O=C1C[C@H]2OCCC[C@H]2O1`, the GI50 in the experiment with A2780, with WiDr and in the experiment with SW1573 was greater than 100 µM each time.

Take `CC(C)(C)[Si](C)(C)OC[C@H]1OCCC[C@H]1O[Si](C)(C)C(C)(C)C`: the 50% growth inhibitory concentration (GI50) in the experiment with A2780, with WiDr and with SW1573 was greater than 100 µM throughout.

For `CC(C)(C)[Si](C)(C)O[C@@H]1CCCO[C@@H]1/C=C\C(=O)OCc1ccccc1`, the GI50 with A2780 worked out at 29 µM; in the experiment with WiDr, 20 µM; in the experiment on SW1573, 26 µM. The total growth inhibition concentration (TGI) amounted to 77 µM in the experiment with A2780, 64 µM in the experiment on WiDr and 92 µM in the experiment with SW1573.

For the origin of these results see ChEMBL document CHEMBL1139720, “Synthesis and antiproliferative activity of (2R,3R)-disubstituted tetrahydropyrans” (2006).
